Test results published in patent US20140186306A1, “NOVEL AMPK AGONIST COMPOSITIONS AND METHODS OF USE” (priority 2012, published 2014).

Legend:
[1] = human, in vivo, cited from earlier work
mice = conditions: oral dose of 500 mg/Kg/day over a 4 week period; cited from earlier work
[2] = test system: horses with joint and/or soft tissue lameness; test: Clinical response of racing and non-racing horses with joint and/or soft tissue lameness to AICAR injected intra-articularly or locally infiltrated; format: in vivo, horse; conditions: all treated horses; localized injection of 1.3 mg/ml AICAR
Method: In the examples below the novel or test composition indicated as NOVEL was comprised of 1.3 mg/ml solutions of AICAR. The purpose of this study was to evaluate the clinical response of racing and non-racing horses with joint and/or soft tissue lameness to various doses of AICAR, either injected intra-articularly or locally infiltrated into the affected soft tissue structure. […] In most cases, multiple joints or soft tissue structures per animal were treated. In some cases, joints and soft tissue structures were injected simultaneously.
Addition of 0.5 ml of an aminoglycoside antibiotic per 2.5 ml vial of AICAR was left up to the discretion of the attending veterinarian. Prior to the treatment, each case was graded for lameness, swelling and heat, and pain. Each injected joint received either one, 1.3 mg/ml, 2.5 ml dose (3.25 mg) for a small joint, or two, 2.5 ml dose vials for large (stifle) joints. Soft tissue structures, including tendons and tendon sheaths, suspensory ligaments, exostoses (splints), periosteal osteitis, and perineural injections were done with multiple vials of the AICAR. The dose was dependent upon the perceived surface area to be treated. The horses were re-examined at various times post-injection as most horses were stabled at locations remote to the veterinarians. All cases were followed up by telephone calls to trainers/caretakers within 24 hours. […]

NC(=O)c1ncn([C@@H]2O[C@H](CO)[C@@H](O)[C@H]2O)c1N [AICAR, 5-amino-1-β-D-ribofuranosyl-imidazole-4-carboxamide]
oral bioavailability ([1]; po): less than 5% | plasma clearance [1]: 2.2 L/h/kg | performance-enhancing activity (mice): performance-enhancing activity | adverse events [2]: No adverse events were reported with the exception of transient swelling of a fetlock that was traumatically injected
